Source: PubChem BioAssay AID1963825 (Molecular Pharmacology Branch, DTP, NCI, 2024)

Experiment: Anticancer human tumor 997537-175-T-J1-PDC patient-derived colon adenocarcinoma cell line growth inhibition [POLQ]
Details: 997537-175-T-J1-PDC complex spheroid viability, combination with POLQ inhibitors; for IC50: curve of first compound; for viability, T/C: stronger effect = lower value
Outline: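 Patient-derived tumour cells were co-cultured with HUVEC and mesenchymal stem cells as multicellular spheroids at 37 °C. They were treated with POLQ inhibitors (novobiocin, ART-558, RP6685) alone or combined with other agents. Top concentrations were at or near clinical Cmax (otherwise 10 microM; SN-38 at 1 microM), decreasing in half-log steps.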

[1] = second compound 0.0316 µM, first compound 0.0316 µM
[2] = second compound 0.0316 µM, first compound 0.1 µM
[3] = second compound 0.0316 µM, first compound 0.316 µM
[4] = second compound 0.0316 µM, first compound 1 µM
[5] = second compound 0.0316 µM, first compound 3.16 µM
[6] = second compound 0.0316 µM, first compound 10 µM
[7] = second compound 0.1 µM, first compound 0.0316 µM
[8] = second compound 0.1 µM, first compound 0.1 µM
[9] = second compound 0.1 µM, first compound 0.316 µM
[10] = second compound 0.1 µM, first compound 1 µM
[11] = second compound 0.1 µM, first compound 3.16 µM
[12] = second compound 0.1 µM, first compound 10 µM
[13] = second compound 0.316 µM, first compound 0.0316 µM
[14] = second compound 0.316 µM, first compound 0.1 µM
[15] = second compound 0.316 µM, first compound 0.316 µM
[16] = second compound 0.316 µM, first compound 1 µM
[17] = second compound 0.316 µM, first compound 3.16 µM
[18] = second compound 0.316 µM, first compound 10 µM
[19] = second compound 1 µM, first compound 0.0316 µM
[20] = second compound 1 µM, first compound 0.1 µM
[21] = second compound 1 µM, first compound 0.316 µM
[22] = second compound 1 µM, first compound 1 µM
[23] = second compound 1 µM, first compound 3.16 µM
[24] = second compound 1 µM, first compound 10 µM
[25] = second compound 3.16 µM, first compound 0.0316 µM
[26] = second compound 3.16 µM, first compound 0.1 µM
[27] = second compound 3.16 µM, first compound 0.316 µM
[28] = second compound 3.16 µM, first compound 1 µM
[29] = second compound 3.16 µM, first compound 3.16 µM
[30] = second compound 3.16 µM, first compound 10 µM
[31] = second compound 10 µM, first compound 0.0316 µM
[32] = second compound 10 µM, first compound 0.1 µM
[33] = second compound 10 µM, first compound 0.316 µM
[34] = second compound 10 µM, first compound 1 µM
[35] = second compound 10 µM, first compound 3.16 µM
[36] = second compound 10 µM, first compound 10 µM
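Further: luminescence signal used as a surrogate for viable cells; spheroids exposed to drugs for seven days before readout.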

CC1COCCN1c1cc(C2(O)CC3CCC(C2)O3)c2cnn(-c3ccn[nH]3)c2n1 (centres undefined) + COC1C(OC(N)=O)C(O)C(Oc2ccc3c(O)c(NC(=O)c4ccc(O)c(CC=C(C)C)c4)c(=O)oc3c2C)OC1(C)C showed an IC50 (second compound 0.0316 µM) of 0.234 µM, an IC50 (second compound 0.1 µM) of 0.276 µM and an IC50 (second compound 0.316 µM) of 0.29 µM. For the same compound, the IC50 (second compound 1 µM) was greater than 10 µM, the IC50 (second compound 3.16 µM) was greater than 10 µM and the IC50 (second compound 10 µM) was greater than 10 µM. It also gave a viability, T/C [1] of 72.4%, a viability, T/C [2] of 70.1% and a viability, T/C [3] of 42.2%. It also gave a viability, T/C [4] of 36.9%, a viability, T/C [5] of 40.1% and a viability, T/C [6] of 52%. The viability, T/C [7] was 75.6%, the viability, T/C [8] was 81.3% and the viability, T/C [9] was 36%. The viability, T/C [10] was 37.9%, the viability, T/C [11] was 50.3% and the viability, T/C [12] was 60.8%. For the same compound, the viability, T/C [13] was 84.2%, the viability, T/C [14] was 66.8% and the viability, T/C [15] was 41.2%. For the same compound, the viability, T/C [16] was 51.1%, the viability, T/C [17] was 51.4% and the viability, T/C [18] was 50.8%. For the same compound, the viability, T/C [19] was 82.9%, the viability, T/C [20] was 68% and the viability, T/C [21] was 59.5%. It also gave a viability, T/C [22] of 55.3%, a viability, T/C [23] of 64.2% and a viability, T/C [24] of 42.8%. It also gave a viability, T/C [25] of 82.8%, a viability, T/C [26] of 68.1% and a viability, T/C [27] of 47.9%. For the same compound, the viability, T/C [28] was 48.9%, the viability, T/C [29] was 61.7% and the viability, T/C [30] was 50.8%. It also gave a viability, T/C [31] of 71.3%, a viability, T/C [32] of 60.5% and a viability, T/C [33] of 41.1%. The viability, T/C [34] was 58.3%, the viability, T/C [35] was 61.7% and the viability, T/C [36] was 63.6%.

CCc1cc2c(N3CCc4c(cc(Cn5ccnc5)cc4-c4cn(C)nc4C(F)(F)F)C3=O)cc(C)nc2c(OC)n1 + COC1C(OC(N)=O)C(O)C(Oc2ccc3c(O)c(NC(=O)c4ccc(O)c(CC=C(C)C)c4)c(=O)oc3c2C)OC1(C)C showed an IC50 (second compound 0.0316 µM) greater than 10 µM, an IC50 (second compound 0.1 µM) of 6.36 µM and an IC50 (second compound 0.316 µM) greater than 10 µM. It also gave an IC50 (second compound 1 µM) greater than 10 µM, an IC50 (second compound 3.16 µM) greater than 10 µM and an IC50 (second compound 10 µM) greater than 10 µM. For the same compound, the viability, T/C [1] was 95.1%, the viability, T/C [2] was 123% and the viability, T/C [3] was 88.9%. It also gave a viability, T/C [4] of 95.2%, a viability, T/C [5] of 69.1% and a viability, T/C [6] of 55.2%. The viability, T/C [7] was 106%, the viability, T/C [8] was 93.3% and the viability, T/C [9] was 75.1%. For the same compound, the viability, T/C [10] was 68.8%, the viability, T/C [11] was 70% and the viability, T/C [12] was 39.1%. For the same compound, the viability, T/C [13] was 110%, the viability, T/C [14] was 107% and the viability, T/C [15] was 93.5%. The viability, T/C [16] was 80.7%, the viability, T/C [17] was 76.1% and the viability, T/C [18] was 66.7%. The viability, T/C [19] was 102%, the viability, T/C [20] was 114% and the viability, T/C [21] was 86.4%. The viability, T/C [22] was 61.1%, the viability, T/C [23] was 64.2% and the viability, T/C [24] was 60.1%. It also gave a viability, T/C [25] of 113%, a viability, T/C [26] of 104% and a viability, T/C [27] of 100%. The viability, T/C [28] was 68.6%, the viability, T/C [29] was 49.8% and the viability, T/C [30] was 65.6%. For the same compound, the viability, T/C [31] was 92.1%, the viability, T/C [32] was 88.7% and the viability, T/C [33] was 74.3%. The viability, T/C [34] was 66.9%, the viability, T/C [35] was 54.5% and the viability, T/C [36] was 59.8%.
